Data reported in patent US20170021014A1, “VACCINE ADJUVANTS FOR CYTOMEGALOVIRUS PREVENTION AND TREATMENT” (THE JOHNS HOPKINS UNIVERSITY, priority 2015, published 2017).

Key:
MCMV (Smith strain) = assay: MCMV infection of BALB/c mice; assay type: in vivo, mouse; details: after infection, 10 mg/kg twice daily for 5 days
Method: Animal work was carried out in strict accordance with the recommendations in the Guide for the Care and Use of Laboratory Animals of the National Institutes of Health. The animal protocol (number MO13M296) was approved by the Institutional Animal Care and Use Committee (IACUC) of Johns Hopkins University. For infection experiments 3-4 week old BALB/c mice were purchased from Harlan Laboratories (Indianapolis, Ind.). […] IMMUNOL. 980-86 (2011)) or saline intraperitoneally. Blood was collected 4 h after the second dose of iE-DAP for measurement of RANTES by ELISA (R&D Biosystems, Minneapolis, Minn.). Mice were infected with 10^6 PFU tissue culture derived MCMV (Smith strain, ATCC, VR-1399) and scarified after 14 days. Intracardiac blood was collected prior to sacrifice for gB real-time PCR assay (Vliegen et al., 98(1) VIRUS RES. 17-25 (2003)). Salivary glands, liver and spleen were harvested and stored at −80° C. Organs were homogenized in DMEM at a final concentration of 100 mg/mL Two million mouse embryonic fibroblast (MEFs) were seeded into 24-well plates. From each sample, 2.5% of the salivary gland or 10% of liver/spleen homogenate was used for infection of MEFs in triplicates. Plaques were counted after three days.
At 14 days' post infection mice were scarified, intracardiac blood was collected and tissue homogenates were prepared for plaque assays.

HIV-1 = details: acutely infected monocyte-derived macrophages and dendritic cells; cited from earlier work
[1] = tested on: pp28-luciferase Towne strain; assay: pp28-luciferase HCMV replication assay (first and second cycle); assay type: cell-based, human cytomegalovirus
Method: Human Foreskin Fibroblasts (HFFs) passage 12-16 (ATCC, CRL-2088™) were grown in Dulbecco's Modified Eagle Medium (DMEM) containing 10% fetal bovine serum (FBS) (Gibco, Carlsbad, Calif.) in a 5% CO2 incubator at 37° C. The generation of NOD2-KD HFFs (HFF-shNOD2) and control cells (HFF-GIPZ) was reported. One day prior to infection or treatment, 8×10^4 cells were seeded into each well of 12-well tissue culture plates. Multiplicities of infection were specified for each experiment. The Towne HCMV strain was obtained from ATCC (VR-977). The pp28-luciferase Towne strain which expresses luciferase under the control of the pp28 late promoter has been described. Luciferase activity was measured at 72 or 96 hours post infection (hpi) using the Glomax-Multi+ Detection System (Promega, Madison, Wis.). In second cycle replication assays cell free supernatants from HFFs infected with pp28-luciferase Towne were collected 4 days post completion of first replication cycle (5-10% of total volume/well), and used for infection of fresh HFFs seeded into 12-well plates. Cell lysates were collected after 72 h for luciferase activity. Supernatants from the first cycle were also used to measure virus titer in 12-well plates and plaques were counted at day 8 post infection. A purified preparation of the pp28-luciferase Towne strain was prepared by ultracentrifugation using sucrose gradient. The HCMV TB40 strain was obtained from ATCC (VR-1578). Clinical isolates of HCMV were obtained from the microbiology laboratory at Johns Hopkins Hospital with no identifiers that could be linked to a patient. The Johns Hopkins School of Medicine Office of Human Subject Research Institutional Review Board (IRB-X) determined that the research qualified for an exemption.

SMILES: Nc1nc(O)c2ncn(COC(CO)CO)c2n1 [Ganciclovir]
- MCMV inhibition (MCMV (Smith strain)): inhibited MCMV

SMILES: CCCCOC(=O)[C@@H](CCC(N)=O)NC(=O)[C@H](C)NC(=O)[C@@H](C)O[C@H]1[C@H](O)[C@@H](CO)OC(O)[C@@H]1NC(C)=O (stereo partly shown) [MB, murabutide]
- HIV-1 replication (HIV-1): significantly inhibits HIV-1 replication

SMILES: C[C@H](N)C(=O)N[C@H](CCC(=O)NC(CCCC(N)C(=O)O)C(=O)O)C(=O)O (stereo partly drawn) [Tri-DAP, L-Ala-γ-D-Glu-meso-diamino-pimelic acid]
- CMV inhibition (luciferase, protein expression, plaques) ([1]; Tri-DAP 10 μg/mL after infection, 72 hpi): results in CMV inhibition
- CMV replication ([1]; Tri-DAP 10 μg/mL pretreatment 18 or 72 h, MOI 1): inhibits CMV replication
